# Experimental data from patent publication US20230048170A1, “COMPOSITION INCLUDING CATIONIC POLYSACCHARIDE AND ANIONIC ANTIOXIDANT” (priority 2019, published 2023).
# Assay: Solubilisation of baicalin in alkaline water with or without polyquaternium-67
# Format: physicochemical
# Conditions: pH 10
# Method: In Examples 1-3, a polyquaternium-67 (PQ-67) was dissolved in water to prepare a PQ-67 aqueous solution. Then, the pH of the solution was adjusted to 10 by adding 1M NaOH aqueous solution. Next, baicalin was added to the alkaline solution as much as possible. In the compositions according to Examples 1-3, […] was able to be solubilized up to an amount of 0.1% by weight, 0.2% by weight and 0.25% by weight, respectively, relative to the total weight of the composition.
# On the other hand, in the composition according to Comparative Example 1 including no PQ-67, the solubilized amount of […] was limited only to 0.025% by weight relative to the total weight of the composition.
# Thus, by forming a complex by the electrostatic interaction, the solubility of baicalin increased up to 10 folds.
smiles,measurement,value
O=C(O)[C@H]1O[C@@H](Oc2cc3oc(-c4ccccc4)cc(=O)c3c(O)c2O)[C@H](O)[C@@H](O)[C@@H]1O [baicalin],increase of solubility of baicalin by complex formation with PQ-67,up to 10 folds
